Patent US4532255A, “Amidine compounds and anticomplement agent comprising same” (Torii & Co., Ltd., priority 1980, dated 1985)

Tests used:
[1] = molecular target: T1, C1s (Homo sapiens, UniProt P09871); assay: biochemical; details: ATEE hydrolysis; read-out: Anti-C1 activity, C1s ID50
T1 sequence (P09871 438-688 limits assumed): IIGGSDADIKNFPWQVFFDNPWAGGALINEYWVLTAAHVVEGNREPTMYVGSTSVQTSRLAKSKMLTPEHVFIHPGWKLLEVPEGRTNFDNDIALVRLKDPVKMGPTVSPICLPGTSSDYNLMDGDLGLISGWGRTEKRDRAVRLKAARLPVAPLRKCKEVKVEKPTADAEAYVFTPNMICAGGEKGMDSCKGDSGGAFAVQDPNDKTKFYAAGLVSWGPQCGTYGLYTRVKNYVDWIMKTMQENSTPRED
T1 sequence (P09871 16-437 partner limits assumed): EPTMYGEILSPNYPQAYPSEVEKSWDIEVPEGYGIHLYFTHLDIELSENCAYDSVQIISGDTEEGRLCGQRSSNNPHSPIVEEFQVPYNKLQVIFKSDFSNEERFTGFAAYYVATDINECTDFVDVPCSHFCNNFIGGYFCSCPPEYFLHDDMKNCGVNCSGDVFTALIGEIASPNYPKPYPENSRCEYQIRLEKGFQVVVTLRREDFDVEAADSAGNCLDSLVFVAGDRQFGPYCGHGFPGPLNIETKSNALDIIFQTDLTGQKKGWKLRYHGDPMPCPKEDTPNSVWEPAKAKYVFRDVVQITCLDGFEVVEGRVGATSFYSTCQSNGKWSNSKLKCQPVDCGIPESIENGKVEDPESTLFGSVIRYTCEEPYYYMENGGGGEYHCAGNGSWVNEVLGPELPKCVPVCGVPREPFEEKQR
Method: The anti-Cl esterase (Clr, Cls) activity was determined according to the method of Okamura et al. [K. Okamura, M. Muramatsu and S. Fujii, Biochem. Biophys. […] The figures in Table 2 have the following meanings:
Cls: Molar concentration of the test compound which inhibits 50% of the ability of Cls to hydrolyse ATEE (acetyltyrosin ethyl ester).

[2] = molecular target: T2, C1r (Homo sapiens, UniProt P00736); assay: Anti-C1 esterase (C1r) activity (hydrolysis of AAME); type: biochemical; details: for IC50: AAME hydrolysis, read-out: Anti-C1 activity, C1r ID50
T2 sequence (P00736 464-705 limits assumed): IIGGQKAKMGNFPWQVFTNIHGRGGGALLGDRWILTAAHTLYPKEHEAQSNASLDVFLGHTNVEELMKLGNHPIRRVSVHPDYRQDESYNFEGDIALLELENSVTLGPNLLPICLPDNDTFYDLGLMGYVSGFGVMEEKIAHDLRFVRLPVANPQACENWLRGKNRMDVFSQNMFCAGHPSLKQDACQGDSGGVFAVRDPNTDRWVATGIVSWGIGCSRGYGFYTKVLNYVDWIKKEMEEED
T2 sequence (P00736 18-463 partner limits assumed): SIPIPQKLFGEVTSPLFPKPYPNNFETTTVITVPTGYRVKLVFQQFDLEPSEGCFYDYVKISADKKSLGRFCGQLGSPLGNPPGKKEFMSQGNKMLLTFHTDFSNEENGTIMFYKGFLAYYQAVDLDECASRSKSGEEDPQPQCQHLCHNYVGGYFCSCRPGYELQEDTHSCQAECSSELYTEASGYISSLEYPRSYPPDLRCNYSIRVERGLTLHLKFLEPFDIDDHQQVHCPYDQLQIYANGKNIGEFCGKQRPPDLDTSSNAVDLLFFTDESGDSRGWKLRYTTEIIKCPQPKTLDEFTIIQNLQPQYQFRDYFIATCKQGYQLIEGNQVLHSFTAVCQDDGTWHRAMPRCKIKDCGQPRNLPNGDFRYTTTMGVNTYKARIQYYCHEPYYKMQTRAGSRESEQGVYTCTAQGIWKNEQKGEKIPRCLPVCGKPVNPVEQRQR
Method: The anti-Cl esterase ([…]) activity was determined according to the method of Okamura et al. [K. Okamura, M. Muramatsu and S. Fujii, Biochem. Biophys.

[3] = system: complement mediated hemolysis; assay: Inhibition of complement mediated hemolysis; type: cell-based
Method: The principle of this method is based on the fact that hemolysis is caused by the activation of complement, when the latter is added to a complex (immune complex) of erythrocytes and the antibody thereof. The degree of hemolysis varies in proportion to the amount of complement added. Therefore, when a known amount of complement admixed with a C1 esterase inhibitor is used, the hemolysis must be suppressed in proportion to the inhibitory activity.

[4] = molecular target: Plasmin (Homo sapiens, UniProt P00747); assay: Anti-plasmin activity (hydrolysis of TAME); type: biochemical; details: for IC50: molar concentration inhibiting 50% of TAME hydrolysis, read-out: Plasmin ID50; for inhibition at 10 µM: at 1×10^-5 M, read-out: Plasmin percentage inhibition
Plasmin, sequence (P00747 581-810 limits assumed, species assumed): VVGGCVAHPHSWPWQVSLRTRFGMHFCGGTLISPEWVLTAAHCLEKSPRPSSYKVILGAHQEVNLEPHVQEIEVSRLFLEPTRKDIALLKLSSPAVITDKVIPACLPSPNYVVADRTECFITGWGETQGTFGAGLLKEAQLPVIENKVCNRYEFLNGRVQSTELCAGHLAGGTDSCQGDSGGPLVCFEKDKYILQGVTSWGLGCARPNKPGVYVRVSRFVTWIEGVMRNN
Plasmin, sequence (P00747 97-580 partner limits assumed, species assumed): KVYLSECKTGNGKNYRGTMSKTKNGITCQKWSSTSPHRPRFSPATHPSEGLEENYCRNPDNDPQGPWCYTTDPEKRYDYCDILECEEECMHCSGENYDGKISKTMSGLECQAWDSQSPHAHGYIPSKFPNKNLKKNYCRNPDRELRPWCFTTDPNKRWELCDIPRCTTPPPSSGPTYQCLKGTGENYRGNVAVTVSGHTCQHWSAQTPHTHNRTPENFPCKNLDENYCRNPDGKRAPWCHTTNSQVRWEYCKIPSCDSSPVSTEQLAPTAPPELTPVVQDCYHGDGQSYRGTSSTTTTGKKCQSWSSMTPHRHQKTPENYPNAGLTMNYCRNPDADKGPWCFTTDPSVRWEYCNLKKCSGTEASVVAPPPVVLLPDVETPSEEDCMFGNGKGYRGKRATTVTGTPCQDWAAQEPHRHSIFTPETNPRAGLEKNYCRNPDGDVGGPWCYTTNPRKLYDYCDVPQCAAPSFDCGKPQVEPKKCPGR
Method: (§1) The anti-trypsin, anti-plasmin, anti-kallikrein and anti-thrombin activities were determined according to the method of Muramatsu et al. [M. Muramatsu, T. Onishi, S. Makino, Y. Hayashi and S. Fujii, J. of Biochem., 58, 214 (1965)]. […] The compound No. corresponds to the compound number shown in Examples.

[5] = system: Kallikrein; assay: Anti-kallikrein activity (hydrolysis of TAME); type: biochemical; details: at 1×10^-5 M
[6] = molecular target: Thrombin (Homo sapiens, UniProt P00734); assay: biochemical; details: for IC50: molar concentration inhibiting 50% of TAME hydrolysis, read-out: Thrombin ID50; for inhibition at 10 µM: at 1×10^-5 M, read-out: Thrombin percentage inhibition
Method: The anti-trypsin, anti-plasmin, anti-kallikrein and anti-thrombin activities were determined according to the method of Muramatsu et al. [M. Muramatsu, T. Onishi, S. Makino, Y. Hayashi and S. Fujii, J. of Biochem., 58, 214 (1965)]. The data summarized in Table 1 are expressed in terms of molar concentration (ID50) of the test compound which inhibits 50% of the activity of each enzyme to hydrolyze TAME (tosylalginine methyl ester). The compound No. corresponds to the compound number shown in Examples.

[7] = molecular target: T3, Trypsin (Bos taurus, UniProt P00760); assay: Anti-trypsin activity (hydrolysis of TAME); type: biochemical; details: for IC50: molar concentration inhibiting 50% of TAME hydrolysis, read-out: Trypsin ID50
T3 sequence (P00760 24-246): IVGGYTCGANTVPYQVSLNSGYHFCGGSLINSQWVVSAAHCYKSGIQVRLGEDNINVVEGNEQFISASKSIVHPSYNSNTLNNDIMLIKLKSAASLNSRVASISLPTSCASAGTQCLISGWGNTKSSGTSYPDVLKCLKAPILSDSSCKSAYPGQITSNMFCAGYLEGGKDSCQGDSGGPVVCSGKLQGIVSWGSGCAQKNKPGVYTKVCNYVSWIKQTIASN
Method: as §1

Row | SMILES | IC50 [1] | IC50 [2] | Inhibition of complement mediated hemolysis (%) ([3]; 1 × 10^-4) | Inhibition of complement mediated hemolysis (%) ([3]; 1 × 10^-5) | Inhibition of complement mediated hemolysis (%) ([3]; 1 × 10^-6) | Inhibition of complement mediated hemolysis (%) ([3]; 1 × 10^-7) | IC50 [4] | Kallikrein percentage inhibition [5] | IC50 [6] | IC50 [7] | inhibition at 10 µM [4] | inhibition at 10 µM [6] | inhibition at 10 µM ([2]; at 1×10^-5 M, read-out: Anti-C1 activity, C1r percent inhibition) | inhibition at 10 µM ([7]; at 1×10^-5 M, read-out: Trypsin percentage inhibition)
1 | Cc1cccc(C(=O)Oc2ccc3cc(C(=N)N)ccc3c2)c1 [Compound 3, 6-amidino-2-naphthyl 3-methylbenzoate] | 2 µM | 1 µM | 97% | 60% | 8% | 11% | 4 µM | 38% | 4 µM | 2 µM | – | – | – | –
2 | COc1ccc(C(=O)Oc2ccc3cc(C(=N)N)ccc3c2)cc1 [Compound 7] | 0.2 µM | 0.1 µM | 51% | 78% | 21% | 0% | 3 µM | 46% | 3 µM | – | – | – | – | –
3 | CCCCOc1ccc(C(=O)Oc2ccc3cc(C(=N)N)ccc3c2)cc1 [Compound 8] | 0.4 µM | 10 µM | 46% | 18% | 23% | – | – | 43% | – | 0.04 µM | 17% | 29% | – | –
4 | N=C(N)c1ccc2cc(OC(=O)c3ccc4c(c3)OCO4)ccc2c1 [Compound 10] | 0.2 µM | 0.2 µM | 97% | 75% | 9% | 2% | 50 µM | 31% | 4 µM | 0.2 µM | – | – | – | –
5 | N=C(N)c1ccc2cc(OC(=O)c3ccc(O)cc3)ccc2c1 [Compound 11, 6-amidino-2-naphthyl 4-hydroxybenzoate] | 0.2 µM | 0.1 µM | 96% | 56% | 6% | 13% | – | 21% | 7 µM | 0.3 µM | 36% | – | – | –
6 | CC(=O)Oc1ccc(C(=O)Oc2ccc3cc(C(=N)N)ccc3c2)cc1 [Compound 13] | 0.3 µM | 0.3 µM | 94% | 42% | 5% | 4% | 2 µM | 24% | – | 0.4 µM | – | 39% | – | –
7 | N=C(N)c1ccc2cc(OC(=O)c3ccc(Cl)cc3)ccc2c1 [Compound 16] | 0.4 µM | – | 99% | 77% | 24% | 10% | 0.5 µM | 31% | – | 3 µM | – | 38% | 39% | –
8 | N=C(N)c1ccc2cc(OC(=O)c3ccc(Br)cc3)ccc2c1 [Compound 17] | 0.5 µM | 0.7 µM | 98% | 72% | 9% | 0% | 2 µM | 23% | – | 4 µM | – | – | – | –
9 | N#Cc1ccc(C(=O)Oc2ccc3cc(C(=N)N)ccc3c2)cc1 [Compound 19] | 8 µM | 4 µM | 98% | 86% | 22% | 1% | 3 µM | 11% | 2 µM | – | – | – | – | 47%
10 | N=C(N)c1ccc2cc(OC(=O)c3ccc(N)cc3)ccc2c1 [Compound 20, 6-amidino-2-naphthyl 4-aminobenzoate] | 0.2 µM | 0.2 µM | 95% | 46% | 5% | 0% | – | 31% | > 10 µM | 0.06 µM | 27% | – | – | –
11 | CN(C(=N)N)c1ccc(C(=O)Oc2ccc3cc(C(=N)N)ccc3c2)cc1 [Compound 28, 6-amidino-2-naphthyl 4-(Nα-methyl)guanidinobenzoate] | 0.3 µM | 3 µM | 100% | 99% | 60% | 6% | 0.6 µM | 20% | – | 0.6 µM | – | 17% | – | –
12 | CSc1ccc(C(=O)Oc2ccc3cc(C(=N)N)ccc3c2)cc1 [Compound 30] | 0.3 µM | 0.5 µM | 14% | 90% | 40% | 6% | 2 µM | 41% | 4 µM | 2 µM | – | – | – | –
13 | CC(=O)c1ccc(C(=O)Oc2ccc3cc(C(=N)N)ccc3c2)cc1 [Compound 32] | 3 µM | 2 µM | 93% | 97% | 67% | 22% | 3 µM | 26% | 4 µM | 2 µM | – | – | – | –
